# Patent publication US5886016A, “Benzopyranopyrazolyl derivatives for the treatment of inflammation” (G.D. Searle & Co., priority 1997, dated 1999)
# Columns and labels:
# [1] = target: T1, Human COX-2 (Homo sapiens, UniProt P35354); test: Evaluation of COX-2 activity in vitro (recombinant enzyme, PGE2 ELISA); format: biochemical; details: 10 μM arachidonic acid; 10-20 minutes pre-incubation; pH 8.0
# T1 construct: A 2.0 kb fragment containing the coding region of either human or murine COX-1 or human or murine COX-2; made in house; host or cells: SF9 insect cells (recombinant baculovirus, pVL1393); CHAPS-solubilized membranes
# T1 sequence (P35354 18-604): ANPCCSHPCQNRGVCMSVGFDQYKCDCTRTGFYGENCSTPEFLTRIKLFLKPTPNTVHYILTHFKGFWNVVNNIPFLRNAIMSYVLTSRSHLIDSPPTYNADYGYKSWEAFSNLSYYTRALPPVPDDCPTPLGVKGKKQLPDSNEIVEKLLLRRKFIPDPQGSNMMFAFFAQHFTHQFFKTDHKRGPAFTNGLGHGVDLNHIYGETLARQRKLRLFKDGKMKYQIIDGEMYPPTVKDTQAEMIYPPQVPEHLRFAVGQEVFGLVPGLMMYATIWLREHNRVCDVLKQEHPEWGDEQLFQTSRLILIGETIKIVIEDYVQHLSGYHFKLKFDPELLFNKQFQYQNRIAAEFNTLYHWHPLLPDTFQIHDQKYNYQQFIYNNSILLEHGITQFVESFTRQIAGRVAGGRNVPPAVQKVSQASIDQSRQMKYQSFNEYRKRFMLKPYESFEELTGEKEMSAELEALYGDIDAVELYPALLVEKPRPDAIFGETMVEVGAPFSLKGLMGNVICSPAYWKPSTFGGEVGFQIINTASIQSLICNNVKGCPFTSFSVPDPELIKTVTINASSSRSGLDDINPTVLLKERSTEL
# Procedure: The COX-2 inhibition activity of the compounds of this invention illustrated in the Examples was determined by the following methods.
# (§1) a. Preparation of recombinant COX baculoviruses
# (§2) A 2.0 kb fragment containing the coding region of either human or murine COX-1 or human or murine COX-2 was cloned into a BamH1 site of the baculovirus transfer vector pVL1393 (Invitrogen) to generate the baculovirus transfer vectors for COX-1 and COx-2 in a manner similar to the method of D. R. O'Reilly et al (Baculovirus Expression Vectors: A Laboratory Manual (1992)). Recombinant baculoviruses were isolated by transfecting 4 μg of baculovirus transfer vector DNA into SF9 insect cells (2>10e8) along with 200 ng of linearized baculovirus plasmid DNA by the calcium phosphate method. See M. D. Summers and G. E. Smith, A Manual of Methods for Baculovirus Vectors and Insect Cell Culture Procedures, Texas Agric. Exp. Station Bull. 1555 (1987). Recombinant viruses were purified by three rounds of plaque purification and high titer (10E7-10E8 pfu/ml) stocks of virus were prepared. For large scale production, SF9 insect cells were infected in 10 liter fermentors (0.5×10^6 /ml) with the recombinant baculovirus stock such that the multiplicity of infection was 0.1. After 72 hours the cells were centrifuged and the cell pellet homogenized in Tris/Sucrose (50 mM: 25%, pH 8.0) containing 1% 3-[(3-cholamidopropyl)dimethylammoniol]-1-propanesulfonate (CHAPS). The homogenate was centrifuged at 10,000×G for 30 minutes, and the resultant supernatant was stored at -80° C. before being assayed for Cox activity.
# (§3) COX activity was assayed as PGE2 formed/μg protein/time using an ELISA to detect the prostaglandin released. CHAPS-solubilized insect cell membranes containing the appropriate COX enzyme were incubated in a potassium phosphate buffer (50 mM, pH 8.0) containing epinephrine, phenol, and heme with the addition of arachidonic acid (10 μM). Compounds were pre-incubated with the enzyme for 10-20 minutes prior to the addition of arachidonic acid. Any reaction between the arachidonic acid and the enzyme was stopped after ten minutes at 37° C./room temperature by transferring 40 μl of reaction mix into 160 μl ELISA buffer and 25 μM indomethacin. The PGE2 formed was measured by standard ELISA technology (Cayman Chemical).
# [2] = target: T2, Human COX-1 (Homo sapiens, UniProt P23219); test: Evaluation of COX-1 activity in vitro (recombinant enzyme, PGE2 ELISA); format: biochemical; details: 10 μM arachidonic acid; 10-20 minutes pre-incubation; pH 8.0
# T2 construct: A 2.0 kb fragment containing the coding region of either human or murine COX-1 or human or murine COX-2; made in house; host or cells: SF9 insect cells (recombinant baculovirus, pVL1393); CHAPS-solubilized membranes
# From the text: Evaluation of COX-1 and COX-2 activity in vitro
# as §1, §2
# b. Assay for COX-1 and COX-2 activity:
# as §3
# [3] = tested on: hyperalgesic foot withdrawal (rat carrageenan); test: Rat Carrageenan-induced Analgesia Test; format: in vivo, Male Sprague-Dawley rats; details: @ 30 mg/kg body weight; oral; 3 hours after carrageenan
# Procedure: Rat Carrageenan-induced Analgesia Test
# Male Sprague-Dawley rats were treated as previously described for the Carrageenan Foot Pad Edema test. Three hours after the injection of the carrageenan, the rats were placed in a special plexiglass container with a transparent floor having a high intensity lamp as a radiant heat source, positionable under the floor. After an initial twenty minute period, thermal stimulation was begun on either the injected foot or on the contralateral uninjected foot. A photoelectric cell turned off the lamp and timer when light was interrupted by paw withdrawal. The time until the rat withdraws its foot was then measured. The withdrawal latency in seconds was determined for the control and drug-treated groups, and percent inhibition of the hyperalgesic foot withdrawal determined.
# [4] = tested on: carrageenan foot edema (rat paw); test: Rat Carrageenan Foot Pad Edema Test; format: in vivo, Male Sprague-Dawley rats; details: @ 30 mg/kg body weight; oral; 3 hours after carrageenan
# Procedure: Rat Carrageenan Foot Pad Edema Test
# Male Sprague-Dawley rats were selected in each group so that the average body weight was as close as possible. Rats were fasted with free access to water for over sixteen hours prior to the test. […] One hour later a subplantar injection of 0.1 mL of 1% solution of carrageenan/sterile 0.9% saline was administered and the volume of the injected foot was measured with a displacement plethysmometer connected to a pressure transducer with a digital indicator. Three hours after the injection of the carrageenan, the volume of the foot was again measured.
# T2 sequence (P23219 24-599): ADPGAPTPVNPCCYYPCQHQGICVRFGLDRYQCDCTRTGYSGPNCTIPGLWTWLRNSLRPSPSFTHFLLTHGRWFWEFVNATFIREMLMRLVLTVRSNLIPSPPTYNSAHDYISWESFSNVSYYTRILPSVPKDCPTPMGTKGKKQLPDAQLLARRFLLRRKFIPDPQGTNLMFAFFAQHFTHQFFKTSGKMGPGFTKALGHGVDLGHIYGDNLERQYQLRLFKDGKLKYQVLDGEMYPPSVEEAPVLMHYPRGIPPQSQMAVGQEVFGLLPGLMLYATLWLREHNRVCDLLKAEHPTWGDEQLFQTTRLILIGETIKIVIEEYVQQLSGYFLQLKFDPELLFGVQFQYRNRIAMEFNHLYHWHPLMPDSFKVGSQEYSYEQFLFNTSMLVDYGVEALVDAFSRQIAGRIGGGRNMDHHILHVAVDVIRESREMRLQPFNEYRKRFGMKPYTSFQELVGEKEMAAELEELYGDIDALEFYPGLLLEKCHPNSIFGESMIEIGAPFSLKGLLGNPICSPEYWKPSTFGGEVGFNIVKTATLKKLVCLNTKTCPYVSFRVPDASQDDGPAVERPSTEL
SMILES,IC50 [1] [nM],IC50 [2] [nM],ANALGESIA % Inhibition [3] [%],RAT PAW EDEMA % Inhibition [4] [%]
"COc1ccc2c(c1)COc1c(C(F)(F)F)nn(-c3ccc(S(N)(=O)=O)cc3)c1-2 [Example 26, 4-[1,5-dihydro-7-methoxy-3-(trifluoromethyl)-[2]benzopyrano[4,3-c]pyrazol-1-yl]benzenesulfonamide]",< 100,200,–,–
"NS(=O)(=O)c1ccc(-n2nc(C(F)(F)F)c3c2-c2cc(Cl)sc2CS3)cc1 [Example 21, 4-[7-chloro-1,5-dihydro-3-trifluoromethylthieno[3',2':4,5]thiopyrano[3,2-c]pyrazol-1-yl]benzenesulfonamide]",–,–,14,–
"NS(=O)(=O)c1ccc(-n2nc(C(F)F)c3c2-c2ccc(Cl)cc2CS3)cc1 [Example 25, 4-[7-chloro-3-(difluoromethyl)-1,5-dihydro-[2]benzothiopyrano[4,3-c]pyrazol-1-yl]benzenesulfonamide]",< 100,1500,–,–
"CS(=O)(=O)c1ccc(-n2nc(C(F)(F)F)c3c2-c2ccc(F)cc2CS3)cc1 [Example 32, 1,5-dihydro-7-fluoro-1-[(4-methylsulfonyl)phenyl]-3-(trifluoromethyl)-[2]benzothiopyrano[4,3,c]pyrazole]",200,8900,–,–
"NS(=O)(=O)c1ccc(-n2nc(C(F)(F)F)c3c2-c2ccccc2OC3)cc1 [Example 3, 4-[1,4-dihydro-3-(trifluoromethyl)-[1]benzopyrano[4,3-c]pyrazol-1-yl]benzenesulfonamide]",–,7100,–,–
"COc1ccc2c(c1F)CSc1c(C(F)(F)F)nn(-c3ccc(S(N)(=O)=O)cc3)c1-2 [Example 1, 4-[6-fluoro-1,5-dihydro-7-methoxy-3-(trifluoromethyl)-[2]benzothiopyrano[4,3-c]pyrazol-1-yl]benzenesulfonamide]",–,–,35,43
"NS(=O)(=O)c1ccc(-n2nc(C(F)(F)F)c3c2-c2ccccc2CS3)cc1 [Example 16, 4-[1,5-dihydro-3-(trifluoromethyl)-[2]benzothiopyrano[4 3-c]pyrazol-1-yl]benzenesulfonamide]",–,400,–,–
NS(=O)(=O)c1ccc(-n2nc(CO)c3c2-c2ccc(F)cc2CS3)cc1 [Example 36],1700,6700,–,–
N#Cc1nn(-c2ccc(S(N)(=O)=O)cc2)c2c1SCc1cc(F)ccc1-2 [Example 35],100,800,–,–
"Cc1ccc2c(c1)CSc1c(C(F)F)nn(-c3ccc(S(N)(=O)=O)cc3)c1-2 [Example 24, 4-[3-(difluoromethyl)-1,5-Dihydro-7-methyl-[2]benzothiopyrano[4,3-c]pyrazol-1-yl]benzenesulfonamide]",< 100,1200,–,–
"COc1c(F)cc2c(c1F)CSc1c(C(F)(F)F)nn(-c3ccc(S(N)(=O)=O)cc3)c1-2 [Example 29, 4-[6,8-difluoro-1,5-dihydro-7-methoxy-3-(trifluoromethyl)[2]benzothiopyrano[4,3-c]pyrazol-1-yl]benzenesulfonamide]",300,> 100000,–,–
"COc1cc2c(c(OC)c1OC)-c1c(c(C(F)(F)F)nn1-c1ccc(S(N)(=O)=O)cc1)OC2 [Example 27, 4-[1,5-dihydro-7.8,9-trimethoxy-3-(trifluoromethyl)-[2]benzopyrano[4,3-c]pyrazol-1-yl]benzenesulfonamide]",59900,> 100000,–,–
"NS(=O)(=O)c1ccc(-n2nc(C(F)F)c3c2-c2ccc(F)cc2CS3)cc1 [Example 31, 4-[3-(difluoromethyl)-1,5-dihydro-7-fluoro-[2]benzothiopyrano[4,3-c]pyrazol-1-yl]benzenesulfonamide]",< 100,200,–,–
NS(=O)(=O)c1ccc(-n2nc(C(F)(F)F)c3c2-c2ccc4c(c2CS3)OCO4)cc1 [Example 33],< 100,< 100,–,–
"Cc1ccc2c(c1)COc1c(C(F)(F)F)nn(-c3ccc(S(N)(=O)=O)cc3)c1-2 [Example 28, 4-[1,5-dihydro-7-methyl-3-(trifluoromethyl)-[2]benzopyrano[4,3-c]pyrazol-1-yl]benzenesulfonamide]",< 100,> 100000,–,–
"NS(=O)(=O)c1ccc(-n2nc(C(F)(F)F)c3c2-c2ccccc2SC3)cc1 [Example 7, 4-[1,4-dihydro-3-(trifluoromethyl)-[1]benzothiopyrano[4,3-c]pyrazol-1-yl]benzenesulfonamide]",–,9700,–,–
"CN(C)C=NS(=O)(=O)c1ccc(-n2nc(C#N)c3c2-c2ccc(F)cc2CS3)cc1 [Example 34, 4-(3-cyano-1,5-dihydro-7-fluoro-[2]benzothiopyrano[4,3-c]pyrazol-1-yl) -N-[(dimethylamino)methylene]-benzenesulfonamide]",4200,> 100000,–,–
"Cc1ccc2c(c1)COc1c(C(F)F)nn(-c3ccc(S(N)(=O)=O)cc3)c1-2 [Example 30, 4-[3-(difluoromethyl)-1,5-dihydro-7-methyl[2]benzopyrano[4,3-c]pyrazol-1-yl]benzenesulfonamide]",< 100,10700,–,–
